{"source": "patent US20100152249A1", "about": "“COMPOSITONS AND METHOD FOR TREATMENT OF MOOD AND COGNITIVE IMPAIRMENTS” (BOARD OF TRUSTEES OF THE LELAND STANFORD JUNIOR UNIVERSITY, priority 2008, published 2010)", "test_system": "patients with depressive disorder", "assay": "Open-label rosiglitazone added to treatment as usual for 12 weeks in patients with depressive disorder and surrogate IR blood markers", "format": "in vivo, human", "method": "Open-label PPAR agonist, rosiglitazone, titrated to a dose of 8 mg/day, was administered for 12 weeks to patients with depressive disorder receiving treatment as usual (TAU). Subjects were evaluated and surrogate IR blood markers were chosen based on fasting plasma glucose >100 mg/dL or triglyceride (TG) to high density lipoprotein (HDL) ratio of about 3.0 or greater.\nPsychiatric Response to Treatment. […] Cohen's d for pre- to post-treatment HDRS-21 was 1.17, with an effect size of r=0.504. For CGI-S scores, Cohen's d and effect size r for CGI-S were 1.27 and 0.54, respectively. […] Even considering the very small sample size, the trajectory of decline in HDRS and CGI was linear.", "key": {"[1]": {"settings": "8 mg/day, 12 weeks, 8 completers"}}, "data": [{"smiles": "CN(CCOc1ccc(CC2SC(=O)NC2=O)cc1)c1ccccn1", "note": "(stereo not drawn) [rosiglitazone, 5-[4-[2-(N-methyl-N-(2-pyridyl)amino)ethoxy]benzyl]thiazolidine-2,4-dione]", "values": [{"measurement": "CGI-S post-treatment mean", "setting": "8 mg/day, 12 weeks, add-on to TAU, 8 completers, baseline mean 4.0, p=0.043", "value": 2.9}, {"measurement": "HDRS-21 post-treatment mean", "setting": "8 mg/day, 12 weeks, add-on to TAU, 8 completers, baseline mean 19.9, repeated measures ANOVA p=0.019", "value": 12.1}, {"measurement": "Cohen's d for CGI-S", "setting": "[1]", "value": 1.27}, {"measurement": "Cohen's d for pre- to post-treatment HDRS-21", "setting": "[1]", "value": 1.17}, {"measurement": "effect size r for CGI-S", "setting": "[1]", "value": 0.54}, {"measurement": "effect size r for pre- to post-treatment HDRS-21", "setting": "[1]", "value": 0.504}, {"measurement": "patients showing ≧50% HDRS-21 score reduction", "setting": "[1]", "value": "4 of the 8"}, {"measurement": "mean reduction in HDRS-21 scores", "setting": "8 mg/day, 12 weeks, 8 completers, versus baseline", "value": 39.3, "unit": "%"}, {"measurement": "depression severity by Hamilton Depression Rating Scale and clinical assessment (CGI) scores", "setting": "8 patients who completed the 12 week study, moderate effect sizes", "value": "significant declines"}]}]}
